# According to patent US20110046056A1, “APOA-1 PEPTIDE MIMETICS” (priority 2007, published 2011):
# *1 amine or outer side, *2 acyl side, *3 side chain or, on linkers, in order; H or OH if unused. Where a SMILES comes first, the peptide text is derived from it. [ ]: non-standard residue; d: D form. Leu(5,5,5,5',5',5'-F6) = N[C@@H](CC(C(F)(F)F)C(F)(F)F)C(=O)O; Gly(oct-7-en-1-yl) = C=CCCCCCC[C@H](N)C(=O)O; dGly(6-heptenyl) = C=CCCCCC[C@@H](N)C(=O)O; Ala(5-hexenyl) = C=CCCCCC[C@H](N)C(=O)O; dNle(6-vinyl) = C=CCCCC[C@@H](N)C(=O)O; Gly(octyl) = CCCCCCCC[C@H](N)C(=O)O; X6 = CCCCCCC[C@H](N[*:1])C(=O)[*:2]
# Target: T1, ABCA1 cholesterol transporter protein (Mus musculus, UniProt P41233)
# T1 construct: endogenous in cells
# Assay: ABCA1-dependent cholesterol efflux from RAW mouse macrophage cells (in vitro RCT assay)
# Type: cell-based
# Conditions: read-out: EC50 in the cholesterol efflux assay (RCT in vitro assay)
# From the text: Peptides of the present invention were designed based on amphipathic properties and their abilities to solubilize phospholipids and promote cholesterol efflux. The most direct functional measurement of efficacy for the ApoA-1 peptide mimetic is its capacity to improve the efflux of cholesterol from the cell. The RAW and J774 cell lines are reliable mouse macrophage cell lines frequently used in the art for this purpose. […] The RAW cell line is preferred and recited in the description below.
# In the present assay, the RAW cells are plated at 1.5×10^5 cells/200 μl/well/48-well plate in DMEM complete medium (with 10% FBS from INVITROGEN and 1% penicillin-streptomycin-glutamine from GIBCO) and ^3H-cholesterol at 5 μCi/ml. After 24 hours incubation in a moist 37° C. atmosphere with 5% CO2, the spent medium is removed, the cells are washed once with serum-free DMEM (0.1% fatty acid free bovine serum albumin replaces the FBS), and fresh serum-free medium (200 μl) is added to each well. After overnight incubation in the serum-free medium to allow the cellular cholesterol pools to equilibrate, the spent medium is removed, and fresh serum-free medium is added with/without CPT-cAMP (150 μM final). Eight-point serial titrations of the peptide/s being tested are added at this time (duplicate titrations in plain medium without cAMP and duplicate titrations in medium containing cAMP).
# After 24 hours incubation in the various conditions, the medium is harvested from each well and 50 μl aliquots are counted. The cells are then lysed by adding 500 μl of HEPES/Triton lysis buffer to each well. The lysis is facilitated by freezing and thawing once. After thawing, the lysates are mixed well and 50 μl aliquots are counted.
# The percent efflux of each peptide in each medium condition (±cAMP) is calculated by dividing the total counts in the medium by the sum of the total counts in the medium and lysate. The percent efflux seen with plain medium is subtracted from the percent efflux seen with the cAMP-stimulated efflux to yield the reported ABCA1-stimulated values. EC50 values are determined using PRISM software (Table 2).
# T1 sequence (P41233 whole entry): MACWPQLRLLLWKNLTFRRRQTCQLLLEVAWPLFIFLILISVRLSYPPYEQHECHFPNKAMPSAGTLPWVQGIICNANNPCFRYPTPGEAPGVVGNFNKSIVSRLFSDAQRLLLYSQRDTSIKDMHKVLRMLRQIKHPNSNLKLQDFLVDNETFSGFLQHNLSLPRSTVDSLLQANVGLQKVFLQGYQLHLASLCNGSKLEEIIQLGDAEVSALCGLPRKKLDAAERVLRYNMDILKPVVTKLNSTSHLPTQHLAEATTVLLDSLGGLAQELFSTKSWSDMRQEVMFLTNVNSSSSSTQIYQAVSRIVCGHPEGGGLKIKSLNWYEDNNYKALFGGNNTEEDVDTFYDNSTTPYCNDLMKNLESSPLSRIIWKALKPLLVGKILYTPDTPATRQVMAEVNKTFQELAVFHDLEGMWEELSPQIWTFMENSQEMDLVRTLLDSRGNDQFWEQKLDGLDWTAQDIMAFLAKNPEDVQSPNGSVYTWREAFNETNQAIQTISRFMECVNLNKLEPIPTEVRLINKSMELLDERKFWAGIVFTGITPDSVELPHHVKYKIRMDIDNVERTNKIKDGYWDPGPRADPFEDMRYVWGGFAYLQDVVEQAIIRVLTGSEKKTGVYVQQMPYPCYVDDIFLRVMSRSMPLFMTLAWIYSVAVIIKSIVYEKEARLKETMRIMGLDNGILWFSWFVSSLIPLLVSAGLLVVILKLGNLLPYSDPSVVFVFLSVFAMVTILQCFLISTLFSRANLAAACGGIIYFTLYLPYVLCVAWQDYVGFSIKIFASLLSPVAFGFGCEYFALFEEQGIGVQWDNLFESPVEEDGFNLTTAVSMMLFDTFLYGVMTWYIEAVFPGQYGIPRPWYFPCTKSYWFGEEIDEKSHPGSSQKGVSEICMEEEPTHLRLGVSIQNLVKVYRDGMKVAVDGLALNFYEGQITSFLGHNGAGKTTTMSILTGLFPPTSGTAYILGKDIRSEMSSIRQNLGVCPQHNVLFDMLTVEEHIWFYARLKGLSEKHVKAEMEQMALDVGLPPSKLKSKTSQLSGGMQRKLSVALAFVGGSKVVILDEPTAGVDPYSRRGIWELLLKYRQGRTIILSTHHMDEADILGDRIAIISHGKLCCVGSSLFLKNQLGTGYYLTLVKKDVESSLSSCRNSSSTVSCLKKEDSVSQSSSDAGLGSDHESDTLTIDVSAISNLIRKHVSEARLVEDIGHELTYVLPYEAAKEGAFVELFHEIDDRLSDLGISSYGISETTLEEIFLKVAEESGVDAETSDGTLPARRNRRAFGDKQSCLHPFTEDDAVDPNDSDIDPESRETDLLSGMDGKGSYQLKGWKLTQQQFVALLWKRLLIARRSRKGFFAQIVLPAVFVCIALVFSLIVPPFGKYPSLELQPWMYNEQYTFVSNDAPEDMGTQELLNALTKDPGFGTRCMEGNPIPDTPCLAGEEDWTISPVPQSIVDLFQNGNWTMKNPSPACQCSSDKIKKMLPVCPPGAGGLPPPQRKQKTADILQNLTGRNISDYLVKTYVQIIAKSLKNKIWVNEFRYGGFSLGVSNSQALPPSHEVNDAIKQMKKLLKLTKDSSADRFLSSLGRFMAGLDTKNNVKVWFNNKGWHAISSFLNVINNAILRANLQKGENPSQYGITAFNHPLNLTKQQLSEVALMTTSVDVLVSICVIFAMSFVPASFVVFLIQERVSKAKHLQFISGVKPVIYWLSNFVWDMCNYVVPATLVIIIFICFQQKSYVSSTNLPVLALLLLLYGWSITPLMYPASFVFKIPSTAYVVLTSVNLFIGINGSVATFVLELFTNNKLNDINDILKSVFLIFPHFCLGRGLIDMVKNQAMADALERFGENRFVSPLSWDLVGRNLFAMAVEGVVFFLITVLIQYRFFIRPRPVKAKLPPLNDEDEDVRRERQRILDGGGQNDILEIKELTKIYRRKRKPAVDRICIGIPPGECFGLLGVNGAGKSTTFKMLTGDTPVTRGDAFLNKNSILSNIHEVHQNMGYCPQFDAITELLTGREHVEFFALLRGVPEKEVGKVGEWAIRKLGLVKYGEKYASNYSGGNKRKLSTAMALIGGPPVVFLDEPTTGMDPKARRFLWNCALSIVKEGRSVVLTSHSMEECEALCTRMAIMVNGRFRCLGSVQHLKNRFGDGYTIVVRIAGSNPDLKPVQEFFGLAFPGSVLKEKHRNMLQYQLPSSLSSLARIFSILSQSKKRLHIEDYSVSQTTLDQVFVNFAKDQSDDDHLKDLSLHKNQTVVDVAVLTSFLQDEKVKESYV
row,Structure (SMILES),EC50 [nM]
1,"C=CCCCCC[C@H](NC(=O)[C@H](CCC(=O)O)NC(=O)[C@H](CC(N)=O)NC(=O)[C@H](CC(C)C)NC(=O)[C@H](CCCCN)NC(=O)[C@H](CCC(=O)O)NC(=O)[C@H](CCCN=C(N)N)NC(=O)[C@@H](CCCCC=C)NC(=O)[C@H](CCC(=O)O)NC(=O)[C@H](CC(=O)O)NC(=O)[C@H](CC(C)C)NC(=O)[C@@H](NC(=O)[C@@H]1CCCN1C(C)=O)C(C)C)C(=O)N[C@@H](CC(C)C)C(=O)N[C@@H](CCC(=O)O)C(=O)N[C@@H](C)C(=O)N[C@@H](CC(C)C)C(=O)N[C@@H](CCCCN)C(=O)N[C@@H](CCC(N)=O)C(=O)N[C@@H](CCCCN)C(=O)N[C@@H](CC(C)C)C(=O)N[C@@H](CCCCN)C(N)=O [SEQ ID NO 13, PVLDER6HREKLNES7HLEALKQKLK] (Ac-PVLDE[dNle(6-vinyl)]REKLNE[Ala(5-hexenyl)]LEALKQKLK-NH2)",400
2,"C=CCCCC[C@@H](NC(=O)[C@H](CCC(=O)O)NC(=O)[C@H](CC(N)=O)NC(=O)[C@H](CC(C)C)NC(=O)[C@H](CCCCN)NC(=O)[C@H](CCC(=O)O)NC(=O)[C@H](CCCN=C(N)N)NC(=O)[C@H](Cc1ccccc1)NC(=O)[C@H](CCC(=O)O)NC(=O)[C@H](CC(=O)O)NC(=O)[C@H](CC(C)C)NC(=O)[C@@H](NC(=O)[C@@H]1CCCN1C(C)=O)C(C)C)C(=O)N[C@@H](CC(C)C)C(=O)N[C@@H](CCC(=O)O)C(=O)N[C@@H](C)C(=O)N[C@@H](CC(C)C)C(=O)N[C@@H](CCCCN)C(=O)N[C@@H](CCC(N)=O)C(=O)N[C@@H](CCCCN)C(=O)N[C@@H](CC(C)C)C(=O)N[C@@H](CCCCN)C(N)=O [SEQ ID NO 18, PVLDEFREKLNER6HLEALKQKLK] (Ac-PVLDEFREKLNE[dNle(6-vinyl)]LEALKQKLK-NH2)",18000
3,"C=CCCCCC[C@@H](NC(=O)[C@H](CCC(=O)O)NC(=O)[C@H](CC(N)=O)NC(=O)[C@H](CC(C)C)NC(=O)[C@H](CCCCN)NC(=O)[C@H](CCC(=O)O)NC(=O)[C@H](CCCN=C(N)N)NC(=O)[C@H](Cc1ccccc1)NC(=O)[C@H](CCC(=O)O)NC(=O)[C@H](CC(=O)O)NC(=O)[C@H](CC(C)C)NC(=O)[C@@H](NC(=O)[C@@H]1CCCN1C(C)=O)C(C)C)C(=O)N[C@@H](CC(C)C)C(=O)N[C@@H](CCC(=O)O)C(=O)N[C@@H](C)C(=O)N[C@@H](CC(C)C)C(=O)N[C@@H](CCCCN)C(=O)N[C@@H](CCC(N)=O)C(=O)N[C@@H](CCCCN)C(=O)N[C@@H](CC(C)C)C(=O)N[C@@H](CCCCN)C(N)=O [SEQ ID NO 21, PVLDEFREKLNER7HLEALKQKLK] (Ac-PVLDEFREKLNE[dGly(6-heptenyl)]LEALKQKLK-NH2)",7200
4,"C=CCCCCC[C@H](NC(=O)[C@H](CCC(=O)O)NC(=O)[C@H](CC(N)=O)NC(=O)[C@H](CC(C)C)NC(=O)[C@H](CCCCN)NC(=O)[C@H](CCC(=O)O)NC(=O)[C@H](CCCNC(=N)N)NC(=O)[C@H](Cc1ccccc1)NC(=O)[C@H](CCC(=O)O)NC(=O)[C@H](CC(=O)O)NC(=O)[C@H](CC(C)C)NC(=O)[C@@H](NC(=O)[C@@H]1CCCN1C(C)=O)C(C)C)C(=O)N[C@@H](CC(C)C)C(=O)N[C@@H](CCC(=O)O)C(=O)N[C@@H](C)C(=O)N[C@@H](CC(C)C)C(=O)N[C@@H](CCCCN)C(=O)N[C@@H](CCC(N)=O)C(=O)N[C@@H](CCCCN)C(=O)N[C@@H](CC(C)C)C(=O)N[C@@H](CCCCN)C(N)=O [SEQ ID NO 29, PVLDEFREKLNES7HLEALKQKLK] (Ac-PVLDEFREKLNE[Ala(5-hexenyl)]LEALKQKLK-NH2)",2000
5,"C=CCCCCCC[C@H](NC(=O)[C@H](CCC(=O)O)NC(=O)[C@H](CC(N)=O)NC(=O)[C@H](CC(C)C)NC(=O)[C@H](CCCCN)NC(=O)[C@H](CCC(=O)O)NC(=O)[C@H](CCCN=C(N)N)NC(=O)[C@H](Cc1ccccc1)NC(=O)[C@H](CCC(=O)O)NC(=O)[C@H](CC(=O)O)NC(=O)[C@H](CC(C)C)NC(=O)[C@@H](NC(=O)[C@@H]1CCCN1C(C)=O)C(C)C)C(=O)N[C@@H](CC(C)C)C(=O)N[C@@H](CCC(=O)O)C(=O)N[C@@H](C)C(=O)N[C@@H](CC(C)C)C(=O)N[C@@H](CCCCN)C(=O)N[C@@H](CCC(N)=O)C(=O)N[C@@H](CCCCN)C(=O)N[C@@H](CC(C)C)C(=O)N[C@@H](CCCCN)C(N)=O [SEQ ID NO 32, PVLDEFREKLNES8HLEALKQKLK] (Ac-PVLDEFREKLNE[Gly(oct-7-en-1-yl)]LEALKQKLK-NH2)",600
6,"CCCCCCC[C@H](NC(=O)[C@H](CCC(=O)O)NC(=O)[C@H](CC(N)=O)NC(=O)[C@H](CC(C)C)NC(=O)[C@H](CCCCN)NC(=O)[C@H](CCC(=O)O)NC(=O)[C@H](CCCN=C(N)N)NC(=O)[C@H](Cc1ccccc1)NC(=O)[C@H](CCC(=O)O)NC(=O)[C@H](CC(=O)O)NC(=O)[C@H](CC(C)C)NC(=O)[C@@H](NC(=O)[C@@H]1CCCN1C(C)=O)C(C)C)C(=O)N[C@@H](CC(C)C)C(=O)N[C@@H](CCC(=O)O)C(=O)N[C@@H](C)C(=O)N[C@@H](CC(C)C)C(=O)N[C@@H](CCCCN)C(=O)N[C@@H](CCC(N)=O)C(=O)N[C@@H](CCCCN)C(=O)N[C@@H](CC(C)C)C(=O)N[C@@H](CCCCN)C(N)=O [SEQ ID NO 34, PVLDEFREKLNES7H3LEALKQKLK] (Ac-PVLDEFREKLNE[X6]LEALKQKLK-NH2)",600
7,"CCCCCCCC[C@H](NC(=O)[C@H](CCC(=O)O)NC(=O)[C@H](CC(N)=O)NC(=O)[C@H](CC(C)C)NC(=O)[C@H](CCCCN)NC(=O)[C@H](CCC(=O)O)NC(=O)[C@H](CCCN=C(N)N)NC(=O)[C@H](Cc1ccccc1)NC(=O)[C@H](CCC(=O)O)NC(=O)[C@H](CC(=O)O)NC(=O)[C@H](CC(C)C)NC(=O)[C@@H](NC(=O)[C@@H]1CCCN1C(C)=O)C(C)C)C(=O)N[C@@H](CC(C)C)C(=O)N[C@@H](CCC(=O)O)C(=O)N[C@@H](C)C(=O)N[C@@H](CC(C)C)C(=O)N[C@@H](CCCCN)C(=O)N[C@@H](CCC(N)=O)C(=O)N[C@@H](CCCCN)C(=O)N[C@@H](CC(C)C)C(=O)N[C@@H](CCCCN)C(N)=O [SEQ ID NO 35, PVLDEFREKLNES8H3LEALKQKLK] (Ac-PVLDEFREKLNE[Gly(octyl)]LEALKQKLK-NH2)",300
8,"CC(=O)N1CCC[C@H]1C(=O)N[C@H](C(=O)N[C@@H](CC(C)C)C(=O)N[C@@H](CC(=O)O)C(=O)N[C@@H](CCC(=O)O)C(=O)N[C@@H](Cc1ccccc1)C(=O)N[C@@H](CCCNC(=N)N)C(=O)N[C@@H](CCC(=O)O)C(=O)N[C@@H](CCCCN)C(=O)N[C@@H](CC(C)C)C(=O)N[C@@H](CC(N)=O)C(=O)N[C@@H](CCC(=O)O)C(=O)N[C@@H](CC(C(F)(F)F)C(F)(F)F)C(=O)N[C@@H](CC(C)C)C(=O)N[C@@H](CCC(=O)O)C(=O)N[C@@H](C)C(=O)N[C@@H](CC(C)C)C(=O)N[C@@H](CCCCN)C(=O)N[C@@H](CCC(N)=O)C(=O)N[C@@H](CCCCN)C(=O)N[C@@H](CC(C)C)C(=O)N[C@@H](CCCCN)C(N)=O)C(C)C [SEQ ID NO 41, PVLDEFREKLNE-HFLEU-LEALKQKLK] (Ac-PVLDEFREKLNE[Leu(5,5,5,5',5',5'-F6)]LEALKQKLK-NH2; C-terminus assumed)",1100
9,"C=CCCCCC[C@H](NC(=O)[C@H](CCC(=O)O)NC(=O)[C@H](CC(N)=O)NC(=O)[C@H](CC(C)C)NC(=O)[C@H](CCCCN)NC(=O)[C@H](CCC(=O)O)NC(=O)[C@H](CCCN=C(N)N)NC(=O)[C@H](Cc1ccccc1)NC(=O)[C@H](CCC(=O)O)NC(=O)[C@H](CC(=O)O)NC(=O)[C@H](CC(C)C)NC(=O)[C@H](CCCCCC=C)NC(=O)[C@@H]1CCCN1C(C)=O)C(=O)N[C@@H](CC(C)C)C(=O)N[C@@H](CCC(=O)O)C(=O)N[C@@H](C)C(=O)N[C@@H](CC(C)C)C(=O)N[C@@H](CCCCN)C(=O)N[C@@H](CCC(N)=O)C(=O)N[C@@H](CCCCN)C(=O)N[C@@H](CC(C)C)C(=O)N[C@@H](CCCCN)C(N)=O [SEQ ID NO 42, PS7HLDEFREKLNES7HLEALKQKLK] (Ac-P[Ala(5-hexenyl)]LDEFREKLNE[Ala(5-hexenyl)]LEALKQKLK-NH2)",300
10,"C=CCCCCC[C@H](NC(=O)[C@H](CCC(N)=O)NC(=O)[C@H](CCCCN)NC(=O)[C@H](CC(C)C)NC(=O)[C@H](C)NC(=O)[C@H](CCC(=O)O)NC(=O)[C@H](CC(C)C)NC(=O)[C@H](CCCCCC=C)NC(=O)[C@H](CCC(=O)O)NC(=O)[C@H](CC(N)=O)NC(=O)[C@H](CC(C)C)NC(=O)[C@H](CCCCN)NC(=O)[C@H](CCC(=O)O)NC(=O)[C@H](CCCN=C(N)N)NC(=O)[C@H](Cc1ccccc1)NC(=O)[C@H](CCC(=O)O)NC(=O)[C@H](CC(=O)O)NC(=O)[C@H](CC(C)C)NC(=O)[C@@H](NC(=O)[C@@H]1CCCN1C(C)=O)C(C)C)C(=O)N[C@@H](CC(C)C)C(=O)N[C@@H](CCCCN)C(N)=O [SEQ ID NO 44, PVLDEFREKLNES7HLEALKQS7HLK] (Ac-PVLDEFREKLNE[Ala(5-hexenyl)]LEALKQ[Ala(5-hexenyl)]LK-NH2)",600
